Target: T1, Human Factor XIIa (Homo sapiens, UniProt P00748)
T1 construct: purchased Enzyme Research Laboratories
T1 sequence (P00748 373-615 limits assumed): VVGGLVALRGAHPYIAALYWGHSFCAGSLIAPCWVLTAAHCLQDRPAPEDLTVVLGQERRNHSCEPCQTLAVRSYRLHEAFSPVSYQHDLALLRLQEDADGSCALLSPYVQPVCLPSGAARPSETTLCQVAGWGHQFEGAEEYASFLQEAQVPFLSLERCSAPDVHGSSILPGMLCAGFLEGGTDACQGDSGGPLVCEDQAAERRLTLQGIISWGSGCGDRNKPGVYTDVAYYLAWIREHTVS
T1 sequence (P00748 20-372 partner limits assumed): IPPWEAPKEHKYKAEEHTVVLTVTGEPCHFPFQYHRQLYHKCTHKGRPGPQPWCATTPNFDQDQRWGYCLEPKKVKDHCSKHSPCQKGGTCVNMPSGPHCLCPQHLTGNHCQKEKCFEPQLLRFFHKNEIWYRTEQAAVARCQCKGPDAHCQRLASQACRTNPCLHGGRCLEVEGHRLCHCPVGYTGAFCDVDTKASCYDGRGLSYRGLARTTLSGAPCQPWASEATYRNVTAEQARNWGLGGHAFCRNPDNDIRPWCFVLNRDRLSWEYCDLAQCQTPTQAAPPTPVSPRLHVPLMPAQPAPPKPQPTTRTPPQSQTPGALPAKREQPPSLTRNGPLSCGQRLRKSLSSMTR
Assay: Determination of FXIIa inhibition (in vitro IC50 assay, fluorogenic substrate H-DPro-Phe-Arg-AFC)
Type: biochemical
Conditions: human Factor XIIa; fluorogenic substrate H-DPro-Phe-Arg-AFC at Km concentration; 5 min, 25 °C; class symbols; read-out: Human FXIIa IC50
Procedure: In vitro inhibition of Factor XIIa was determined using an IC50 assay based on standard literature methods (see e.g Baeriswyl et al., ACS Chem. Biol., 2015, 10 (8) 1861; Bouckaert et al., European Journal of Medicinal Chemistry 110 (2016) 181). Human Factor XIIa (Enzyme Research Laboratories) was incubated at 25 °C with the fluorogenic substrate H-DPro-Phe-Arg-AFC (Peptide Protein Science) and various concentrations of the test compound. Protease activity was measured by monitoring the accumulation of liberated fluorescence from the substrate over 5 min at 25 °C. The linear rate of fluorescence increase per minute was expressed as percentage (%) activity. The Km for the cleavage of the substrate by FXIIa was determined by standard transformation of the Michaelis-Menten equation. The compound inhibitor assays were performed at substrate Km concentration. IC50 values were calculated as the concentration of inhibitor giving 50% inhibition (IC50) of the uninhibited enzyme activity (100%).

Compound	IC50
Cn1ccc(OCC23CN(C(=O)N4CCCCC4)C(CNc4cccc5c(N)nccc45)(C2)C3)cc1=O [Example 54, 4-((1-(((1-aminoisoquinolin-5-yl)amino)methyl)-2-(piperidine-1-carbonyl)-2-azabicyclo[2.1.1]hexan-4-yl)methoxy)-1-methylpyridin-2(1H)-one]	10 to 100 nM
COc1cccc(C2CCN(C(=O)N3CC4(COc5cc(C)n(C)c(=O)c5)CC3(CNc3cccc5c(N)nccc35)C4)C2)c1 (stereo not shown) [Example 86, 4-((1-(((1-aminoisoquinolin-5-yl)amino)methyl)-2-(3-(3-methoxyphenyl)pyrrolidine-1-carbonyl)-2-azabicyclo[2.1.1]hexan-4-yl)methoxy)-1,6-dimethylpyridin-2(1H)-one]	10 to 100 nM
Cc1cc(OCC23CN(C(=O)N4CC5(CCOCC5)C4)C(CNc4cccc5c(N)nccc45)(C2)C3)cc(=O)n1C [Example 46, 4-((1-(((1-aminoisoquinolin-5-yl)amino)methyl)-2-(7-oxa-2-azaspiro[3.5]nonane-2-carbonyl)-2-azabicyclo[2.1.1]hexan-4-yl)methoxy)-1,6-dimethylpyridin-2(1H)-one]	10 to 100 nM
Cc1cc(OCC23CN(C(=O)C(C)c4ccc5c(c4)CCO5)C(CNc4cccc5c(N)nccc45)(C2)C3)cc(=O)n1C (stereo not shown) [Example 28, 4-((1-(((1-aminoisoquinolin-5-yl)amino)methyl)-2-(2-(2,3-dihydrobenzofuran-5-yl)propanoyl)-2-azabicyclo[2.1.1]hexan-4-yl)methoxy)-1,6-dimethylpyridin-2(1H)-one]	10 to 100 nM
Cn1ccc(OCC23CC(CNc4cccc5c(N)nccc45)(CN2C(=O)CC2CCCCC2)C3)cc1=O [Example 103, 4-((4-(((1-aminoisoquinolin-5-yl)amino)methyl)-2-(2-cyclohexylacetyl)-2-azabicyclo[2.1.1]hexan-1-yl)methoxy)-1-methylpyridin-2(1H)-one]	300 to 1000 nM
Nc1nccc2c(NCC34CC(c5ncc(-c6ccccc6)o5)(CO3)C4)cccc12 [Example 1, N5-((4-(5-Phenyloxazol-2-yl)-2-oxabicyclo[2.1.1]hexan-1-yl)methyl)isoquinoline-1,5-diamine]	40000 to 100000 nM
Cn1ccc(OCC23CN(C(=O)NCCCOCc4ccccc4)C(CNc4cccc5c(N)nccc45)(C2)C3)cc1=O [Example 82, 1-(((1-aminoisoquinolin-5-yl)amino)methyl)-N-(3-(benzyloxy)propyl)-4-(((1-methyl-2-oxo-1,2-dihydropyridin-4-yl)oxy)methyl)-2-azabicyclo[2.1.1]hexane-2-carboxamide]	10 to 100 nM
Cc1cc(OCC23CN(C(=O)CC45CCC(CC4)C5)C(CNc4cccc5c(N)nccc45)(C2)C3)cc(=O)n1C [Example 22, 4-((1-(((1-aminoisoquinolin-5-yl)amino)methyl)-2-(2-(bicyclo[2.2.1]heptan-1-yl)acetyl)-2-azabicyclo[2.1.1]hexan-4-yl)methoxy)-1,6-dimethylpyridin-2(1H)-one]	10 to 100 nM
Cn1ccc(OCC23CN(C(=O)CC4CCOCC4)C(CNc4cccc5c(N)nccc45)(C2)C3)cc1=O [Example 9, 4-((1-(((1-aminoisoquinolin-5-yl)amino)methyl)-2-(2-(tetrahydro-2H-pyran-4-yl)acetyl)-2-azabicyclo[2.1.1]hexan-4-yl)methoxy)-1-methylpyridin-2(1H)-one]	10 to 100 nM
Cc1cc(OCC23CN(C(=O)CC4CCC(F)(F)CC4)C(CNc4cccc5c(N)nccc45)(C2)C3)cc(=O)n1C [Example 23, 4-((1-(((1-aminoisoquinolin-5-yl)amino)methyl)-2-(2-(4,4-difluorocyclohexyl)acetyl)-2-azabicyclo[2.1.1]hexan-4-yl)methoxy)-1,6-dimethylpyridin-2(1H)-one]	10 to 100 nM
Cc1cc(OCC23CN(C(=O)N4CCC5(CCOCC5)C4)C(CNc4cccc5c(N)nccc45)(C2)C3)cc(=O)n1C [Example 83, 4-((1-(((1-aminoisoquinolin-5-yl)amino)methyl)-2-(8-oxa-2-azaspiro[4.5]decane-2-carbonyl)-2-azabicyclo[2.1.1]hexan-4-yl)methoxy)-1,6-dimethylpyridin-2(1H)-one]	10 to 100 nM
Nc1nccc2c(NCC34CC(CN5C(=O)CC[C@H]5c5ccccc5)(CO3)C4)cccc12 [Example 2, (S)-1-((1-(((1-aminoisoquinolin-5-yl)amino)methyl)-2-oxabicyclo[2.1.1]hexan-4-yl)methyl)-5-phenylpyrrolidin-2-one]	3000 to 10000 nM
Cc1ncccc1NCC12CC(COc3cc(C)n(C)c(=O)c3)(CN1C(=O)NC1(c3ccccc3)CC1)C2 [Example 56, 4-(((1,6-dimethyl-2-oxo-1,2-dihydropyridin-4-yl)oxy)methyl)-1-(((2-methylpyridin-3-yl)amino)methyl)-N-(1-phenylcyclopropyl)-2-azabicyclo[2.1.1]hexane-2-carboxamide]	40000 to 100000 nM

Further lines, results first:

IC50	Compound
10 to 100 nM	Cc1cc(OCC23CN(C4=NCCO4)C(CNc4cccc5c(N)nccc45)(C2)C3)cc(=O)n1C [Example 97, 4-((1-(((1-Aminoisoquinolin-5-yl)amino)methyl)-2-(4,5-dihydrooxazol-2-yl)-2-azabicyclo[2.1.1]hexan-4-yl)methoxy)-1,6-dimethylpyridin-2(1H)-one]
10 to 100 nM	Cn1ccc(OCC23CN(C(=S)Nc4ccccc4)C(CNc4cccc5c(N)nccc45)(C2)C3)cc1=O [Example 91, 1-(((1-Aminoisoquinolin-5-yl)amino)methyl)-4-(((1-methyl-2-oxo-1,2-dihydropyridin-4-yl)oxy)methyl)-N-phenyl-2-azabicyclo[2.1.1]hexane-2-carbothioamide]
1 to 10 nM	Cc1cc(OCC23CN(C(=O)N4CC[C@@H](c5ccccc5)C4)C(CNc4cccc5c(N)nccc45)(C2)C3)cc(=O)n1C [Example 45, (S)-4-((1-(((1-aminoisoquinolin-5-yl)amino)methyl)-2-(3-phenylpyrrolidine-1-carbonyl)-2-azabicyclo[2.1.1]hexan-4-yl)methoxy)-1,6-dimethylpyridin-2(1H)-one]
1 to 10 nM	Cn1ccc(OCC23CN(C(=O)Nc4cc(F)cc5c4OCOC5)C(CNc4cccc5c(N)nccc45)(C2)C3)cc1=O [Example 62, 1-(((1-aminoisoquinolin-5-yl)amino)methyl)-N-(6-fluoro-4H-benzo[d][1,3]dioxin-8-yl)-4-(((1-methyl-2-oxo-1,2-dihydropyridin-4-yl)oxy)methyl)-2-azabicyclo [2.1.1]hexane-2-carboxamide]
1 to 10 nM	Cc1cc(OCC23CN(C(=O)N(C)C4COc5ccccc54)C(CNc4cccc5c(N)nccc45)(C2)C3)cc(=O)n1C (stereo not shown) [Example 90, 1-(((1-Aminoisoquinolin-5-yl)amino)methyl)-N-(2,3-dihydrobenzofuran-3-yl)-4-(((1,6-dimethyl-2-oxo-1,2-dihydropyridin-4-yl)oxy)methyl)-N-methyl-2-azabicyclo[2.1.1]hexane-2-carboxamide]
1 to 10 nM	Nc1nccc2c(NCC34CC(COc5cc6n(c(=O)c5)CCC6)(CN3C(=O)NC3(c5ccccc5)CC3)C4)cccc12 [Example 59, 1-(((1-Aminoisoquinolin-5-yl)amino)methyl)-4-(((5-oxo-1,2,3,5-tetrahydroindolizin-7-yl)oxy)methyl)-N-(1-phenylcyclopropyl)-2-azabicyclo[2.1.1]hexane-2-carboxamide]
1 to 10 nM	Cn1ccc(OCC23CN(C(=O)Cc4ccc5c(c4)NC(=O)CO5)C(CNc4cccc5c(N)nccc45)(C2)C3)cc1=O [Example 17, 6-(2-(1-(((1-aminoisoquinolin-5-yl)amino)methyl)-4-(((1-methyl-2-oxo-1,2-dihydropyridin-4-yl)oxy)methyl)-2-azabicyclo[2.1.1]hexan-2-yl)-2-oxoethyl)-2H-benzo[b][1,4]oxazin-3(4H)-one]
1 to 10 nM	Cn1ccc(OCC23CN(C(=O)N4CC[C@@H](c5ccccc5)C4)C(CNc4cccc5c(N)nccc45)(C2)C3)cc1=O [Example 44, (S)-4-((1-(((1-aminoisoquinolin-5-yl)amino)methyl)-2-(3-phenylpyrrolidine-1-carbonyl)-2-azabicyclo[2.1.1]hexan-4-yl)methoxy)-1-methylpyridin-2(1H)-one]
1 to 10 nM	Cn1ccc(OCC23CN(C(=O)Cc4ccc5c(c4)CCCO5)C(CNc4cccc5c(N)nccc45)(C2)C3)cc1=O [Example 15, 4-((1-(((1-Aminoisoquinolin-5-yl)amino)methyl)-2-(2-(chroman-6-yl)acetyl)-2-azabicyclo[2.1.1]hexan-4-yl)methoxy)-1-methylpyridin-2(1H)-one]

Source: US20260347347A1, “2-AZA-AND 2-OXABICYCLO[2.1.1]HEXANE DERIVATIVES AS FACTOR XIIA ENZYME INHIBITORS” (KALVISTA PHARMACEUTICALS LIMITED, priority 2022, published 2026)
